The text below walks through data of ChEMBL document CHEMBL1255344, “Buthionine sulfoximine has anti-Trypanosoma cruzi activity in a murine model of acute Chagas' disease and enhances the efficacy of nifurtimox” (Antimicrob Agents Chemother, 2008).

SMILES strings stand for the structures. Calls of active or inactive are those of the source. The rule behind the calls is not given here.

In data set [1] the test system is Trypanosoma cruzi. Kind of data set: Antitrypanosomal activity against Trypanosoma cruzi clone Dm28c metacyclic trypomastigotes infected in BALB/c mouse assessed as increase in survival rate at 30 mg/kg/day, ip measured after 20 days. Type of data set: functional, organism-based.
Data set [2] deals with Trypanosoma cruzi. The data set can be described thus: Antitrypanosomal activity against Trypanosoma cruzi clone Dm28c metacyclic trypomastigotes infected in BALB/c mouse assessed as increase in survival rate at 2.5 mg/kg/day, ip measured after 20 days. Type of data set: functional, organism-based.
The test system of data set [3] is Trypanosoma cruzi. Kind of data set: Antitrypanosomal activity against Trypanosoma cruzi clone Dm28c metacyclic trypomastigotes infected in mouse assessed as decrease in heart parasite burden at 220 mg/kg/day, ip measured after 20 days. The data set is classed as functional, organism-based.
The subject of data set [4] is Trypanosoma cruzi. The data set can be described thus: Antitrypanosomal activity against Trypanosoma cruzi clone Dm28c metacyclic trypomastigotes infected in mouse assessed as decrease in heart parasite burden at 30 mg/kg/day, ip measured after 20 days. The data set is classed as functional, organism-based.
Data set [5] deals with Trypanosoma cruzi. Kind of data set: Antitrypanosomal activity against Trypanosoma cruzi clone Dm28c metacyclic trypomastigotes infected in mouse assessed as decrease in heart parasitemia at 30 mg/kg/day, ip measured after 20 days. Type of data set: functional, organism-based.
In data set [6] the test system is Mus musculus. Kind of data set: Toxicity in BALB/c mouse at 220 mg/kg/day, ip measured after 20 days. The data set is classed as organism-based. Also noted: route intraperitoneal. To be noted: in vivo, 480 h.
Data set [7] relates to Trypanosoma cruzi. Kind of data set: Antitrypanosomal activity against Trypanosoma cruzi clone Dm28c metacyclic trypomastigotes infected in BALB/c mouse assessed as increase in survival rate at 10 mg/kg/day, ip measured after 20 days. The settings on record: 480 h, route intraperitoneal. Type of data set: functional.
Data set [8] relates to Trypanosoma cruzi. Kind of data set: Antitrypanosomal activity against Trypanosoma cruzi clone Dm28c metacyclic trypomastigotes infected in BALB/c mouse assessed as increase in survival rate at 220 mg/kg/day, ip measured after 20 days (reference value: 25%). Type of data set: functional.
The subject of data set [9] is Trypanosoma cruzi. The data set can be described thus: Antitrypanosomal activity against Trypanosoma cruzi clone Dm28c metacyclic trypomastigotes infected in mouse assessed as decrease in heart parasitemia at 220 mg/kg/day, ip measured after 20 days. The data set is classed as functional, organism-based.

Regarding `CCCCS(=N)(=O)CCC(N)C(=O)O` (stereo not given) [BUTHIONINE SULFOXIMINE], the result in data set [1], in data set [2], in data set [4] and in [5] was inactive. Also, the result in data set [3], in data set [8] and in data set [9] was Active. In addition, the Activity result in [6] is “Non-toxic”. Further, the survival at 10 mg/kg/day in [7] was not above 100%. Moreover, the survival at 220 mg/kg/day in [8] (480 h, route intraperitoneal) was not above 80%.
